The supplement of paper PMC11424490
Where a name gives a salt, the structure may show the parent alone.

What was measured:
SW837 = assay: combination cScore with adagrasib (Bliss gap around IC50) (%PoC); higher = stronger additive effect
Outline: (§1)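 The score averages the gap between expected and measured viability under Bliss independence, taken over a field around the IC50 of each single agent or, where an IC50 was not reached, at the highest concentrations. Viability came from CellTiter-Glo luminescence, normalised to vehicle wells as percent of control and fitted with four-parameter curves. NCI-H2122, NCI-H358 and SW837 cells were dosed in concentration matrices 24 h after seeding and grown for 72 h, or 144 h for SW837.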

NCI-H2122 = assay: as above
Outline: as §1

Compound	combination cScore with adagrasib (SW837)	combination cScore with adagrasib (NCI-H2122)
COc1cc(OC)c(/C=C/S(=O)(=O)Cc2ccc(OC)c(NCC(=O)O)c2)c(OC)c1 [Rigosertib] + C=C(F)C(=O)N1CCN(c2nc(OC[C@@H]3CCCN3C)nc3c2CCN(c2cccc4cccc(Cl)c24)C3)C[C@@H]1CC#N [adagrasib]	7.78	1.67
C/C=C1\NC(=O)[C@H]2CSSCC/C=C/[C@H](CC(=O)N[C@H](C(C)C)C(=O)N2)OC(=O)[C@H](C(C)C)NC1=O [Romidepsin] + C=C(F)C(=O)N1CCN(c2nc(OC[C@@H]3CCCN3C)nc3c2CCN(c2cccc4cccc(Cl)c24)C3)C[C@@H]1CC#N [adagrasib]	6.42	-1.65
N#CC[C@H](C1CCCC1)n1cc(-c2ncnc3[nH]ccc23)cn1 [Ruxolitinib] + C=C(F)C(=O)N1CCN(c2nc(OC[C@@H]3CCCN3C)nc3c2CCN(c2cccc4cccc(Cl)c24)C3)C[C@@H]1CC#N [adagrasib]	0.75	-2.1
CC(C)(C)c1ccc(S(=O)(=O)NCc2ccc(C(=O)Nc3cccnc3)cc2)cc1 [STF-31] + C=C(F)C(=O)N1CCN(c2nc(OC[C@@H]3CCCN3C)nc3c2CCN(c2cccc4cccc(Cl)c24)C3)C[C@@H]1CC#N [adagrasib]	10.7	-2.08
CNC(=O)c1cc(Oc2ccc(NC(=O)Nc3ccc(Cl)c(C(F)(F)F)c3)cc2)ccn1 [Sorafenib] + C=C(F)C(=O)N1CCN(c2nc(OC[C@@H]3CCCN3C)nc3c2CCN(c2cccc4cccc(Cl)c24)C3)C[C@@H]1CC#N [adagrasib]	-4.84	-6.98
CCN(CC)CCNC(=O)c1c(C)[nH]c(/C=C2\C(=O)Nc3ccc(F)cc32)c1C [Sunitinib] + C=C(F)C(=O)N1CCN(c2nc(OC[C@@H]3CCCN3C)nc3c2CCN(c2cccc4cccc(Cl)c24)C3)C[C@@H]1CC#N [adagrasib]	4.56	1.03
Cn1nnc2c(C(N)=O)ncn2c1=O [Temozolomide] + C=C(F)C(=O)N1CCN(c2nc(OC[C@@H]3CCCN3C)nc3c2CCN(c2cccc4cccc(Cl)c24)C3)C[C@@H]1CC#N [adagrasib]	4.71	12.1
C[C@@H]1CCN(C(=O)CC#N)C[C@@H]1N(C)c1ncnc2[nH]ccc12 [Tofacitinib citrate] + C=C(F)C(=O)N1CCN(c2nc(OC[C@@H]3CCCN3C)nc3c2CCN(c2cccc4cccc(Cl)c24)C3)C[C@@H]1CC#N [adagrasib]	5.3	-3.58
CC(C)C[C@@H](C(=O)N[C@H](C(=O)OC1CCCC1)c1ccccc1)[C@H](O)C(=O)NO [Tosedostat] + C=C(F)C(=O)N1CCN(c2nc(OC[C@@H]3CCCN3C)nc3c2CCN(c2cccc4cccc(Cl)c24)C3)C[C@@H]1CC#N [adagrasib]	19.8	1.4
CC(=O)Nc1cccc(-n2c(=O)n(C3CC3)c(=O)c3c(Nc4ccc(I)cc4F)n(C)c(=O)c(C)c32)c1 [Trametinib] + C=C(F)C(=O)N1CCN(c2nc(OC[C@@H]3CCCN3C)nc3c2CCN(c2cccc4cccc(Cl)c24)C3)C[C@@H]1CC#N [adagrasib]	13.6	6.74
CC1=C(/C=C/C(C)=C/C=C/C(C)=C/C(=O)O)C(C)(C)CCC1 [Tretinoin] + C=C(F)C(=O)N1CCN(c2nc(OC[C@@H]3CCCN3C)nc3c2CCN(c2cccc4cccc(Cl)c24)C3)C[C@@H]1CC#N [adagrasib]	2.87	-2.19
COc1cc2c(NC3CCN(C(C)C)CC3)nc(C3CCCCC3)nc2cc1OCCCN1CCCC1 [UNC0638] + C=C(F)C(=O)N1CCN(c2nc(OC[C@@H]3CCCN3C)nc3c2CCN(c2cccc4cccc(Cl)c24)C3)C[C@@H]1CC#N [adagrasib]	13.2	5.77
CC(C)Nc1cc(-c2c[nH]c(C(=O)N[C@H](CO)c3cccc(Cl)c3)c2)c(Cl)cn1 [Ulixertinib] + C=C(F)C(=O)N1CCN(c2nc(OC[C@@H]3CCCN3C)nc3c2CCN(c2cccc4cccc(Cl)c24)C3)C[C@@H]1CC#N [adagrasib]	2.22	-12.2
CS(=O)(=O)c1ccc(-c2cnc(N)c(C(=O)Nc3ccccc3)n2)cc1 [VE-821] + C=C(F)C(=O)N1CCN(c2nc(OC[C@@H]3CCCN3C)nc3c2CCN(c2cccc4cccc(Cl)c24)C3)C[C@@H]1CC#N [adagrasib]	12.8	4.3
CNCc1ccc(-c2cc(-c3nc(-c4ccc(S(=O)(=O)C(C)C)cc4)cnc3N)on2)cc1 [VE-822/VX-970] + C=C(F)C(=O)N1CCN(c2nc(OC[C@@H]3CCCN3C)nc3c2CCN(c2cccc4cccc(Cl)c24)C3)C[C@@H]1CC#N [adagrasib]	-9.66	3.08
CCCC(CCC)C(=O)O [Valproic acid] + C=C(F)C(=O)N1CCN(c2nc(OC[C@@H]3CCCN3C)nc3c2CCN(c2cccc4cccc(Cl)c24)C3)C[C@@H]1CC#N [adagrasib]	2.04	-2.93
C[C@]1(c2nc3c(C(N)=O)cccc3[nH]2)CCCN1 [Veliparib] + C=C(F)C(=O)N1CCN(c2nc(OC[C@@H]3CCCN3C)nc3c2CCN(c2cccc4cccc(Cl)c24)C3)C[C@@H]1CC#N [adagrasib]	5.64	-0.59
CC[C@]1(O)C[C@@H]2CN(CCc3c([nH]c4ccccc34)[C@@](C(=O)OC)(c3cc4c(cc3OC)N(C)[C@H]3[C@@](O)(C(=O)OC)[C@H](OC(C)=O)[C@]5(CC)C=CCN6CC[C@]43[C@@H]65)C2)C1 [Vinblastine] + C=C(F)C(=O)N1CCN(c2nc(OC[C@@H]3CCCN3C)nc3c2CCN(c2cccc4cccc(Cl)c24)C3)C[C@@H]1CC#N [adagrasib]	4.5	-3.66
CCC1=C[C@@H]2CN(C1)Cc1c([nH]c3ccccc13)[C@@](C(=O)OC)(c1cc3c(cc1OC)N(C)[C@H]1[C@@](O)(C(=O)OC)[C@H](OC(C)=O)[C@]4(CC)C=CCN5CC[C@]31[C@@H]54)C2 [Vinorelbine] + C=C(F)C(=O)N1CCN(c2nc(OC[C@@H]3CCCN3C)nc3c2CCN(c2cccc4cccc(Cl)c24)C3)C[C@@H]1CC#N [adagrasib]	3.93	-8.58
CS(=O)(=O)c1ccc(C(=O)Nc2ccc(Cl)c(-c3ccccn3)c2)c(Cl)c1 [Vismodegib] + C=C(F)C(=O)N1CCN(c2nc(OC[C@@H]3CCCN3C)nc3c2CCN(c2cccc4cccc(Cl)c24)C3)C[C@@H]1CC#N [adagrasib]	15.7	3.61
O=C(CCCCCCC(=O)Nc1ccccc1)NO [Vorinostat] + C=C(F)C(=O)N1CCN(c2nc(OC[C@@H]3CCCN3C)nc3c2CCN(c2cccc4cccc(Cl)c24)C3)C[C@@H]1CC#N [adagrasib]	14.9	1.67
CN[C@H]1CN(c2ccc3c(=O)c(C(=O)O)cn(-c4nccs4)c3n2)C[C@@H]1OC [Vosaroxin] + C=C(F)C(=O)N1CCN(c2nc(OC[C@@H]3CCCN3C)nc3c2CCN(c2cccc4cccc(Cl)c24)C3)C[C@@H]1CC#N [adagrasib]	4.99	5.97
